{"source": "patent US20260102472A1", "about": "“SEMAGLUTIDE IN MEDICAL THERAPY” (Novo Nordisk A/S, priority 2023, published 2026)", "tested_on": "human subjects with obesity-related heart failure with preserved ejection fraction", "assay": "Randomised, double-blind, placebo-controlled clinical trial of semaglutide in obesity-related HFpEF (Example 1)", "format": "in vivo", "conditions": "for Time to first HF event from randomisation leading to either hospitalisation or an urgent visit, Hazard ratio: Semaglutide 2.4 mg/placebo; for Observed KCCQ-CSS mean change from baseline: 2.4 mg once weekly subcutaneously", "excerpt": "The Kansas City Cardiomyopathy Questionnaire (KCCQ) is a disease-specific health status instrument composed of 23 items that quantify the domains of physical limitation, symptoms, self-efficacy, social limitation, and health-related quality of life limitation from heart failure (available via cvoutcomes.org). The questions of the KCCQ are as published in the appendix of Green et al., JACC 2000; 35 (5): 1245-55:\nThe Kansas City Cardiomyopathy Questionnaire clinical summary score (KCCQ-CSS) is used for interpretation of the KCCQ and scores range from 0 to 100 where higher scores indicate better function. KCCQ-CSS is calculated as the mean of the available summary scores Physical Limitation Score and Total Symptom Score from the KCCQ. […] “Total Symptom Score” is calculated as the mean of the available summary scores Symptom Frequency Score and Symptom Burden Score. “Symptom Frequency Score” is calculated, if answer to at least two of Questions 3, 5, 7 and 9 are not missing, as 100*(mean of S3, S5, S7 and S9 answered), where S3=[(Question 3)−1]/4, S5=[(Question 5)−1]/6, S7=[(Question 7)−1]/6, and S9=[(Question 9)−1]/4; answers to Question 3 are scored as follows: Every morning=1, 3 or more times a week but not every day=2, 1-2 times a week=3, Less than once a week=4, Never over the past 2 weeks=5; answers to Questions 5 and 7 are scored as follows: All of the time=1, Several times a day=2, At least once a day=3, 3 or more times a week but not every day=4, 1-2 times a week=5, Less than once a week=6, or Never over the past 2 weeks=7; and answers to Question 9 are scored as follows: Every night=1, 3 or more times a week but not every day=2, 1-2 times a week=3, Less than once a week=4, or Never over the past 2 weeks=5. “Symptom Burden Score” is calculated, if answer to at least one of Questions 4, 6 and 8 is not missing, as 100*[(mean of Questions 4, 6 and 8 answered)−1]/4 where answers are scored as follows: Extremely bothersome=1, Quite a bit bothersome=2, Moderately bothersome=3, Slightly bothersome=4, Not at all bothersome=5, or I've had no swelling/fatigue/shortness of breath=5. The term “mean of questions answered” as used herein refers to that for a scale with n in questions where the subject must answer m to score the scale, but the subject answers only n-i, where n-i>=m, then the mean of those questions is calculated as (sum of answers to those n-i questions)/(n-i).\nThe six minute walk test (6MWT) is a determination of the distance a subject is able to walk over a period of six minutes where the subject traverses, at its own pace and resting as needed, back and forth along a marked walkway of 20 meters with the goal of walking as far as possible without running. The distance obtained from 6MWT is referred to as the six minute walk distance (6MWD). The 6MWT is a direct and timed measure of walking ability, which is technically simple and reproducible.\nHeart failure exists in different degrees of severity. The most commonly used classification system of heart failure is the New York Heart Association Functional Classification (also referred to as “NYHA”). NYHA categorises subjects in one of four classes I-IV (Table A), based on their degree of limitation during physical activity, and optionally an additional subgroup A-D based on objective assessments, for further details see The Criteria Committee of the New York Heart Association. Nomenclature and Criteria for Diagnosis of Diseases of the Heart and Great Vessels. 9th ed. Boston, Mass: Little, Brown & Co; 1994:253-256.\nA randomised, double-blind, international multicentre, placebo-controlled clinical trial with semaglutide was carried out with 529 human subjects with obesity-related heart failure with preserved ejection fraction. Key inclusion criteria were body mass index (BMI) of at least 30 kg/m^2, NYHA Class II-IV, and LVEF of at least 45% at time of screening for the clinical trial. […]", "key": {"[1]": {"conditions": "pair-wise comparisons vs. placebo, 2.4 mg"}, "[2]": {"conditions": "week 52, 2.4 mg once weekly vs. placebo"}, "[3]": {"conditions": "week 52, 2.4 mg once weekly vs. placebo, listed as semaglutide"}, "[4]": {"conditions": "week 52, 2.4 mg once weekly, ANCOVA estimate"}}, "data": [{"substance": "N-epsilon26-[2-(2-{2-[2-(2-{2-[(S)-4-Carboxy-4-(17-carboxyheptadecanoyl-amino) butyrylamino]ethoxy}ethoxy) acetylamino]ethoxy}ethoxy) acetyl] [Aib8,Arg34] GLP-1-(7-37) [Semaglutide]", "values": [{"measurement": "Inflammation", "setting": "HFpEF and obesity, no data given", "result": "reduced inflammation"}, {"measurement": "Time to first HF event from randomisation leading to either hospitalisation or an urgent visit, Hazard ratio", "result": 0.08}, {"measurement": "Time to first HF event from randomisation leading to either hospitalisation or an urgent visit, Hazard ratio", "setting": "listed as semaglutide", "result": "risk of experiencing a heart failure event was less"}, {"measurement": "Patients improved or with no change in NYHA class compared with placebo", "setting": "baseline to 52 weeks", "result": "more patients treated with semaglutide improved or observed no change in NYHA class"}, {"measurement": "More wins on semaglutide as compared to placebo", "setting": "hierarchical composite endpoint", "result": 72, "unit": "%"}, {"measurement": "Hierarchical composite endpoint, Loss: All-cause death", "setting": "[1]", "result": 1.1, "unit": "%"}, {"measurement": "Hierarchical composite endpoint, Loss: Change in 6MWD ≥30 meters difference", "setting": "[1]", "result": 3.7, "unit": "%"}, {"measurement": "Hierarchical composite endpoint, Loss: Change in KCCQ-CSS ≥5 points difference", "setting": "[1]", "result": 7.0, "unit": "%"}, {"measurement": "Hierarchical composite endpoint, Loss: Change in KCCQ-CSS ≥10 points difference", "setting": "[1]", "result": 5.6, "unit": "%"}, {"measurement": "Hierarchical composite endpoint, Loss: Change in KCCQ-CSS ≥15 points difference", "setting": "[1]", "result": 17.5, "unit": "%"}, {"measurement": "Hierarchical composite endpoint, Loss: Number of HF events", "setting": "[1]", "result": 0.0, "unit": "%"}, {"measurement": "Hierarchical composite endpoint, Loss: Time-to-first HF event", "setting": "[1]", "result": 0.0, "unit": "%"}, {"measurement": "Hierarchical composite endpoint, Loss: Total", "setting": "[1]", "result": 34.9, "unit": "%"}, {"measurement": "Hierarchical composite endpoint, Proportion of ties", "setting": "[1]", "result": "Proportion of ties: 5.1%."}, {"measurement": "Hierarchical composite endpoint, Wins: All-cause death", "setting": "[1]", "result": 1.5, "unit": "%"}, {"measurement": "Hierarchical composite endpoint, Wins: Change in 6MWD ≥30 meters difference", "setting": "[1]", "result": 6.3, "unit": "%"}, {"measurement": "Hierarchical composite endpoint, Wins: Change in KCCQ-CSS ≥5 points difference", "setting": "[1]", "result": 8.2, "unit": "%"}, {"measurement": "Hierarchical composite endpoint, Wins: Change in KCCQ-CSS ≥10 points difference", "setting": "[1]", "result": 7.2, "unit": "%"}, {"measurement": "Hierarchical composite endpoint, Wins: Change in KCCQ-CSS ≥15 points difference", "setting": "[1]", "result": 33.7, "unit": "%"}, {"measurement": "Hierarchical composite endpoint, Wins: Number of HF events", "setting": "[1]", "result": 3.3, "unit": "%"}, {"measurement": "Hierarchical composite endpoint, Wins: Time-to-first HF event", "setting": "[1]", "result": 0.0, "unit": "%"}, {"measurement": "Hierarchical composite endpoint, Wins: Total", "setting": "[1]", "result": 60.1, "unit": "%"}, {"measurement": "Observed body weight (%) mean change from baseline", "setting": "week 0, 2.4 mg once weekly", "result": 0, "unit": "%"}, {"measurement": "Observed six minutes walk distance mean change from baseline", "setting": "week 0, 2.4 mg once weekly", "result": 0, "unit": "meters"}, {"measurement": "Observed KCCQ-CSS mean change from baseline", "setting": "week 0", "result": 0}, {"measurement": "Observed body weight (%) mean change from baseline", "setting": "week 4, dose escalation to 2.4 mg once weekly", "result": "−2.1", "unit": "%"}, {"measurement": "Observed body weight (%) mean change from baseline", "setting": "week 8, dose escalation to 2.4 mg once weekly", "result": "−3.2", "unit": "%"}, {"measurement": "Observed body weight (%) mean change from baseline", "setting": "week 12, dose escalation to 2.4 mg once weekly", "result": "−5.0", "unit": "%"}, {"measurement": "Observed body weight (%) mean change from baseline", "setting": "week 16, dose escalation to 2.4 mg once weekly", "result": "−6.6", "unit": "%"}, {"measurement": "Observed body weight (%) mean change from baseline", "setting": "week 20, 2.4 mg once weekly", "result": "−7.8", "unit": "%"}, {"measurement": "Observed six minutes walk distance mean change from baseline", "setting": "week 20, 2.4 mg once weekly", "result": 14.3, "unit": "meters"}, {"measurement": "Observed KCCQ-CSS mean change from baseline", "setting": "week 20", "result": 11.0}, {"measurement": "Observed body weight (%) mean change from baseline", "setting": "week 28, 2.4 mg once weekly", "result": "−10.2", "unit": "%"}, {"measurement": "Observed body weight (%) mean change from baseline", "setting": "week 36, 2.4 mg once weekly", "result": "−12.1", "unit": "%"}, {"measurement": "Observed KCCQ-CSS mean change from baseline", "setting": "week 36", "result": 15.0}, {"measurement": "Observed body weight (%) mean change from baseline", "setting": "week 44, 2.4 mg once weekly", "result": "−12.9", "unit": "%"}, {"measurement": "NYHA class from baseline to week 52: Improvement", "setting": "week 52, 2.4 mg once weekly", "result": 36.4, "unit": "%"}, {"measurement": "NYHA class from baseline to week 52: No change", "setting": "week 52, 2.4 mg once weekly", "result": 61.7, "unit": "%"}, {"measurement": "NYHA class from baseline to week 52: Worsening", "setting": "week 52, 2.4 mg once weekly", "result": 2.0, "unit": "%"}, {"measurement": "Observed body weight (%) mean change from baseline", "setting": "week 52, 2.4 mg once weekly", "result": "−13.9", "unit": "%"}, {"measurement": "Observed proportion improving ≥5 points from baseline in KCCQ-CSS", "setting": "week 52, 2.4 mg once weekly", "result": 75, "unit": "%"}, {"measurement": "Observed proportion improving ≥10 points from baseline in KCCQ-CSS", "setting": "week 52, 2.4 mg once weekly", "result": 63, "unit": "%"}, {"measurement": "Observed six minutes walk distance mean change from baseline", "setting": "week 52, 2.4 mg once weekly", "result": 23.5, "unit": "meters"}, {"measurement": "Observed KCCQ-CSS mean change from baseline", "setting": "week 52", "result": 16.8}, {"measurement": "Body weight (%) change from baseline to week 52, Treatment difference vs. placebo", "setting": "[2]", "result": "−10.7", "unit": "%"}, {"measurement": "Improvement of ≥5 points in KCCQ-CSS, Treatment Odds ratio vs. placebo", "setting": "[2]", "result": 1.88}, {"measurement": "Improvement of ≥10 points in KCCQ-CSS, Treatment Odds ratio vs. placebo", "setting": "[2]", "result": 2.10}, {"measurement": "KCCQ-CSS change from baseline to week 52, Treatment difference vs. placebo", "setting": "[2]", "result": 7.8, "unit": "score"}, {"measurement": "Six minutes walk distance change from baseline to week 52, Treatment difference vs. placebo", "setting": "[2]", "result": 20.3, "unit": "meters"}, {"measurement": "Body weight (%) change from baseline to week 52, Treatment difference vs. placebo", "setting": "[3]", "result": "significantly larger body weight loss"}, {"measurement": "KCCQ-CSS change from baseline to week 52, Treatment difference vs. placebo", "setting": "[3]", "result": "significantly larger improvement in KCCQ-CSS"}, {"measurement": "Six minutes walk distance change from baseline to week 52, Treatment difference vs. placebo", "setting": "[3]", "result": "significantly larger improvement in six minutes walk distance"}, {"measurement": "Body weight (%) change from baseline to week 52, Estimate", "setting": "[4]", "result": "−13.3", "unit": "%"}, {"measurement": "KCCQ-CSS change from baseline to week 52, Estimate", "setting": "[4]", "result": 16.6, "unit": "score"}, {"measurement": "Six minutes walk distance change from baseline to week 52, Estimate", "setting": "[4]", "result": 21.5, "unit": "meters"}]}]}
